Reference: patent publication US20240360194A1, “New Peptides as Potent and Selective GIP Receptor Agonists” (Sanofi, priority 2021, published 2024)
Numbered stars: 1 amine (or outer) side, 2 acyl side, 3 side chain; on linkers, the order of the positions; unused ones are H or OH. Square brackets hold non-standard residues; d marks the D form. Side chains are listed from the residue outwards. Peptide text beside a SMILES is read from it. * marks the point of attachment. C18 diacid = O=C(O)CCCCCCCCCCCCCCCCC(=O)*; γGlu = O=C(O)[C@H](CCC(=O)[*:2])N[*:1]; AEEA = NCCOCCOCC(=O)O; Aib = CC(C)(N)C(=O)O

Experiments:
[1] = target: human GLP-1 receptor (hGLP-1R) (Homo sapiens, UniProt P43220); assay: In vitro cellular cAMP assay for GLP-1 receptor efficacy (HEK-293 cell line over-expressing receptor); assay type: cell-based; conditions: HEK-293, 0.1% BSA
Chain of human GLP-1 receptor (hGLP-1R) (P43220 24-463): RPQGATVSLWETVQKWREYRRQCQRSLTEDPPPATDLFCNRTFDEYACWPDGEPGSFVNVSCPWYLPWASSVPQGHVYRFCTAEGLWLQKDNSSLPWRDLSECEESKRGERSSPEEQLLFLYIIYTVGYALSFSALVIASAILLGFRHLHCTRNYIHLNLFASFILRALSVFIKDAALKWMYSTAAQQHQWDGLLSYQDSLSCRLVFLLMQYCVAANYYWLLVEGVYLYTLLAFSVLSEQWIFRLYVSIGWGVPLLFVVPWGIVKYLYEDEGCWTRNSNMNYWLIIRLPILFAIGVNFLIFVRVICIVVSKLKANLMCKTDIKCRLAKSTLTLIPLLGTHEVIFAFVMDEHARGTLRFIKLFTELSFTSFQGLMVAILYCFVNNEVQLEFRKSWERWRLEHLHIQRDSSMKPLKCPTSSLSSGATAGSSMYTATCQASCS

[2] = ThT assay for the assessment of physical stability (fibrillation); assay type: physicochemical; conditions: ThT buffer system A: 100 mM phosphate buffer pH 7.4; 3 mg/ml, 37° C., shaking
Text: Low physical stability of a peptide solution may lead to amyloid fibril formation, which is observed as well-ordered, thread-like macromolecular structures in the sample, which eventually may lead to gel formation. Thioflavin T (ThT) is widely used to visualize and quantify the presence of misfolded protein aggregates [Biancalana et al., Biochim. Biophys. Acta 2010, 1804(7), 1405]. […] Enzymol. 1999, 309, 274]. The time course for fibril formation often follows the characteristic shape of a sigmoidal curve and can be separated into three regions: a lag phase, a fast growth phase, and a plateau phase. The typical fibril formation process starts with the lag phase in which the amount of partially folded peptide turned into fibrils is not significant enough to be detected. The lag-time corresponds to the time the critical mass of the nucleus is built. Afterwards, a drastic elongation phase follows, and fibril concentration increases rapidly. Investigations were carried out to determine fibrillation tendencies under stress conditions by shaking at 37° C. within Fluoroskan Ascent FL or Fluoroskan Ascent. For the tests in Fluoroskan Ascent (FL), 200 μl sample were placed into a 96-well mictrotiter plate PS, flat bottom, Greiner Fluotrac No. 655076. Plates were sealed with Scotch Tape (Qiagen). Samples were stressed by continuous cycles of 10 sec shaking at 960 rpm and 50 sec rest period at 37° C. The kinetic was monitored by measuring fluorescence intensity every 20 min. Peptides were diluted in a buffer system to a final concentration of 3 mg/ml. 20 μl of a 10.1 mM ThT solution in H2O were added to 2 ml of peptide solution to receive a final concentration of 100 μM ThT. For each sample eight replicates were tested. • ThT buffer system A) 100 mM phosphate buffer pH 7.4 • ThT buffer system B) 100 mM phosphate buffer pH 7.4, 2.7 mg/ml m-cresol Lag time in hours (h) in Thioflavin T (ThT) assay of peptide samples was determined in ThT buffer system A as described in Methods.

[3] = target: T1, human GIP receptor (Homo sapiens, UniProt P48546); assay: In vitro cellular cAMP assay for GIP receptor efficacy (human adipocytes); assay type: cell-based; conditions: for Emax: read-out: hGIPR Emax
T1 construct: human adipocytes endogenously expressing the human GIP receptor; host or cells: human preadipocytes (Lonza) differentiated to adipocytes
T1 sequence (P48546 22-466): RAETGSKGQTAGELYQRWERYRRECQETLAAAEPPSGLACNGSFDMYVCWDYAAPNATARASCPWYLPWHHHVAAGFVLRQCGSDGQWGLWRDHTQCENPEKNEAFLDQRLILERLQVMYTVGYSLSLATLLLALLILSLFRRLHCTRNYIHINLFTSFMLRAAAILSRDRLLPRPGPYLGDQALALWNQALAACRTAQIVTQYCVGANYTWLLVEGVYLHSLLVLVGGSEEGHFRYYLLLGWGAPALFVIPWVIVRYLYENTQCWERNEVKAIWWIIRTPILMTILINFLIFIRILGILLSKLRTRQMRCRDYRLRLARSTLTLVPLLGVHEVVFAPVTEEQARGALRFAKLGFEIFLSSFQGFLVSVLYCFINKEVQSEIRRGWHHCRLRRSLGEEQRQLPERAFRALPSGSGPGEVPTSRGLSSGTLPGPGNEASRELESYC
Outline: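 cAMP is read by HTRF (665/620 nm ratio, 1 h after reagents in lysis buffer) following 30 min compound exposure at room temperature. Cells are human preadipocyte-derived adipocytes, differentiated 6 days with insulin, dexamethasone, IBMX (200 μM), PPARγ agonist and L-thyroxine, seeded 5000 per well.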

[4] = target: T2, human GIP receptor (hGIPR) (Homo sapiens, UniProt P48546); assay: Binding assay, displacement of [125I]GIP from HEK-293 membranes over-expressing GIPR (SPA); conditions: [125I]GIP displacement
T2 sequence (P48546 22-466): T1 sequence (P48546 22-466)
Outline: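 Membranes from HEK-293 cells over-expressing human GIPR or GLP-1R, isolated by homogenising, sonicating and ultracentrifuging at 100000×g into HEPES/EDTA/NaCl buffer with protease inhibitors, were used for binding.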

Structure (SMILES)	EC50 [1]	Increase in FI [2]	Lag time before increase [2]	Emax [3]	IC50 [4]	EC50 ([3]; read-out: hGIPR EC50)
CC[C@H](C)[C@H](NC(=O)[C@H](CCCNC(=N)N)NC(=O)[C@H](CCC(=O)O)NC(=O)[C@H](CCCCNC(=O)COCCOCCNC(=O)COCCOCCNC(=O)CC[C@H](NC(=O)CCCCCCCCCCCCCCCCC(=O)O)C(=O)O)NC(=O)C(C)(C)NC(=O)[C@@H](NC(=O)[C@H](CO)NC(=O)[C@H](CC(C)C)NC(=O)[C@H](CC(=O)O)NC(=O)[C@H](CO)NC(=O)[C@@H](NC(=O)[C@H](Cc1ccccc1)NC(=O)[C@@H](NC(=O)CNC(=O)[C@H](CCC(=O)O)NC(=O)C(C)(C)NC(=O)[C@@H](N)Cc1ccc(O)cc1)[C@@H](C)O)[C@@H](C)CC)[C@@H](C)CC)C(=O)N[C@@H](Cc1c[nH]cn1)C(=O)N[C@@H](CCC(N)=O)C(=O)NC(C)(C)C(=O)N[C@@H](CCC(=O)O)C(=O)N[C@@H](Cc1ccccc1)C(=O)N[C@H](C(=O)N[C@@H](CCC(=O)O)C(=O)N[C@@H](Cc1c[nH]c2ccccc12)C(=O)N[C@@H](CC(C)C)C(=O)N[C@@H](CC(C)C)C(=O)N[C@@H](C)C(=O)N[C@@H](CCC(N)=O)C(=O)NCC(=O)N1CCC[C@H]1C(=O)N[C@@H](CO)C(=O)N[C@@H](CO)C(=O)NCC(=O)N[C@@H](C)C(=O)N1CCC[C@H]1C(=O)N1CCC[C@H]1C(=O)N1CCC[C@H]1C(=O)N[C@@H](CO)C(N)=O)[C@@H](C)CC [SEQ ID NO: 21, H2N-Y-Aib-E-G-T-F-I-S-D-L-S-I-Aib-K[{AEEA}2-gGlu-C18OH]-E-R-I-H-Q-Aib-E-F-I-E-W-L-L-A-Q-G-P-S-S-G-A-P-P-P-S-NH2] (H-Y[Aib]EGTFISDLSI[Aib]K([AEEA-AEEA-γGlu-C18 diacid])ERIHQ[Aib]EFIEWLLAQGPSSGAPPPS-NH2)	> 10000 pM	no	>45 h	120%	800 pM	
CC[C@H](C)[C@H](NC(=O)[C@H](Cc1ccccc1)NC(=O)[C@H](CCC(=O)O)NC(=O)C(C)(C)NC(=O)[C@H](CCC(N)=O)NC(=O)[C@H](Cc1c[nH]cn1)NC(=O)C(C)(C)NC(=O)[C@H](CCCNC(=N)N)NC(=O)[C@H](CC(=O)O)NC(=O)[C@H](CCCCNC(=O)COCCOCCNC(=O)COCCOCCNC(=O)CC[C@H](NC(=O)CCCCCCCCCCCCCCCCC(=O)O)C(=O)O)NC(=O)C(C)(C)NC(=O)[C@@H](NC(=O)[C@H](CO)NC(=O)[C@H](CC(C)C)NC(=O)[C@H](CC(=O)O)NC(=O)[C@H](CO)NC(=O)[C@@H](NC(=O)[C@H](Cc1ccccc1)NC(=O)[C@@H](NC(=O)CNC(=O)[C@H](CCC(=O)O)NC(=O)C(C)(C)NC(=O)[C@@H](N)Cc1ccc(O)cc1)[C@@H](C)O)[C@@H](C)CC)[C@@H](C)CC)C(=O)N[C@@H](CCC(=O)O)C(=O)N[C@@H](Cc1c[nH]c2ccccc12)C(=O)N[C@@H](CC(C)C)C(=O)N[C@@H](CC(C)C)C(=O)N[C@@H](C)C(=O)N[C@@H](CCC(N)=O)C(=O)N[C@@H](CCCNC(=N)N)C(=O)N1CCC[C@H]1C(=O)N[C@@H](CO)C(=O)N[C@@H](CO)C(=O)NCC(=O)N[C@@H](C)C(=O)N1CCC[C@H]1C(=O)N1CCC[C@H]1C(=O)N1CCC[C@H]1C(=O)N[C@@H](CO)C(N)=O [SEQ ID NO: 22, H2N-Y-Aib-E-G-T-F-I-S-D-L-S-I-Aib-K[{AEEA}2-gGlu-C18OH]-D-R-Aib-H-Q-Aib-E-F-I-E-W-L-L-A-Q-R-P-S-S-G-A-P-P-P-S-NH2] (H-Y[Aib]EGTFISDLSI[Aib]K([AEEA-AEEA-γGlu-C18 diacid])DR[Aib]HQ[Aib]EFIEWLLAQRPSSGAPPPS-NH2)	> 10000 pM	no	>45 h	98%	1000 pM	600 pM
